Assay [1] addresses T1, Substance-P receptor (Homo sapiens, UniProt P25103). The assay is described as follows: Displacement of [3H] labelled Substance P from cloned human NK1 receptor expressed in CHO cells. It counts as cell-based. For orientation: Displacement assays read how much labelled ligand stays bound in the presence of the test substance.
Assay [2] concerns the target T1, Substance-P receptor. The assay is described as follows: Effect on IP3 turnover by phospholipaseC positively linked to human NK1 receptor expressed in CHO cells. Particulars: read-out: pA2 (converted). It counts as functional, cell-based.
In the next assay the test system is Gerbil, jird. The experiment in a line: Inhibition of GR-73632 induced foot tapping in po dosed gerbils. It counts as functional. Particulars: Meriones.

T1 sequence (P25103 whole entry): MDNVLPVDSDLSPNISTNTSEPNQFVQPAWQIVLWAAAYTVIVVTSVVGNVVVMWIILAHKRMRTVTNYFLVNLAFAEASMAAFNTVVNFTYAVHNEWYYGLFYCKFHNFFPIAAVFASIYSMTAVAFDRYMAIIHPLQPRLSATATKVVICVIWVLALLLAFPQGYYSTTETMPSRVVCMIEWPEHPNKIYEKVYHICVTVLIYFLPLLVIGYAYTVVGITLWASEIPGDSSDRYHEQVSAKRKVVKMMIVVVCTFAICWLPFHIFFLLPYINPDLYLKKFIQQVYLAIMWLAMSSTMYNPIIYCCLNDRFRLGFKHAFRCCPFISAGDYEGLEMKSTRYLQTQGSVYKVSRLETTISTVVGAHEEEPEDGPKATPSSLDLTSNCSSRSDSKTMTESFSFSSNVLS

`O=C(c1cc(C(F)(F)F)cc(C(F)(F)F)c1)N1CCN(CC2=NOC(CN3CCOCC3)C2)C[C@H]1Cc1c[nH]c2ccccc12` (stereo not given in full) showed an inhibitory constant (Ki) on Substance-P receptor [1] of 2.51 nM. In addition, the Kb on Substance-P receptor [2] is 0.631 nM. The compound further showed an ED50 in the assay with Gerbil, jird of 6.4 mg/kg.

Regarding `O=C(c1cc(C(F)(F)F)cc(C(F)(F)F)c1)N1CCN(C/C(=N\OCCCN2CCOCC2)c2ccccc2)C[C@H]1Cc1c[nH]c2ccccc12`, the Ki on Substance-P receptor [1] is 6.31 nM. Also, the Kb at Substance-P receptor [2] is 1.26 nM. In the assay with Gerbil, jird, this compound yielded a 50% effective dose (ED50) of over 10 mg/kg.

On to `CO/N=C(/C)CN1CCN(C(=O)c2cc(C(F)(F)F)cc(C(F)(F)F)c2)[C@H](Cc2c[nH]c3ccccc23)C1`, for which, at Substance-P receptor [1], affinity was put at a Ki of 3.98 nM. The Kb on Substance-P receptor [2] is 7.94 nM.

`COc1ccccc1CNCCNC(=O)N1CCN(C(=O)c2cc(C(F)(F)F)cc(C(F)(F)F)c2)[C@H](Cc2c[nH]c3ccccc23)C1`: the Kb at Substance-P receptor [2] was 1.26 nM. The same compound had an ED50 with Gerbil, jird of over 10 mg/kg.

With `C/C(CN1CCN(C(=O)c2cc(C(F)(F)F)cc(C(F)(F)F)c2)[C@H](Cc2c[nH]c3ccccc23)C1)=N/OCCN1CCN(C)CC1`, on Substance-P receptor [1], the Ki is 1.58 nM. In addition, the Kb on Substance-P receptor [2] is 1.58 nM. The compound further showed a 50% effective dose (ED50) in the assay with Gerbil, jird of over 10 mg/kg.

`O=C(c1cc(C(F)(F)F)cc(C(F)(F)F)c1)N1CCN(C/C=N\OCCCN2CCOCC2)C[C@H]1Cc1c[nH]c2ccccc12` showed a Ki at Substance-P receptor [1] of 1.26 nM. Also, the Kb on Substance-P receptor [2] is 0.631 nM. This compound had a 50% effective dose (ED50) with Gerbil, jird of 2.3 mg/kg.

The compound `C/C(CN1CCN(C(=O)c2cc(C(F)(F)F)cc(C(F)(F)F)c2)[C@H](Cc2c[nH]c3ccccc23)C1)=N/OCCN` showed an inhibition constant Ki on Substance-P receptor [1] of 0.794 nM. Further, the Kb at Substance-P receptor [2] was 0.158 nM. In the assay on Gerbil, jird, this compound registered an ED50 of over 10 mg/kg.

Take `CNCCO/N=C(/C)CN1CCN(C(=O)c2cc(C(F)(F)F)cc(C(F)(F)F)c2)[C@H](Cc2c[nH]c3ccccc23)C1`: the affinity on Substance-P receptor [1], expressed as Ki, was 2 nM. The Kb on Substance-P receptor [2] was 0.316 nM. This compound also registered an ED50 with Gerbil, jird of over 10 mg/kg.

For `O=C(c1cc(C(F)(F)F)cc(C(F)(F)F)c1)N1CCN(CC/C(=N\OCCN2CCOCC2)c2ccccc2)C[C@H]1Cc1c[nH]c2ccccc12`, at Substance-P receptor [1], the inhibitory constant (Ki) is 10 nM. The Kb at Substance-P receptor [2] was 1.26 nM. The compound also yielded a median effective dose (ED50) with Gerbil, jird of over 10 mg/kg.

For `C/C(CCN1CCN(C(=O)c2cc(C(F)(F)F)cc(C(F)(F)F)c2)[C@H](Cc2c[nH]c3ccccc23)C1)=N/OCCN1CCOCC1`, affinity at Substance-P receptor [1] was put at a Ki of 0.398 nM. Also, on Substance-P receptor [2], the Kb is 1.26 nM. The compound further registered a median effective dose (ED50) with Gerbil, jird of 2 mg/kg.

`C/C(CN1CCN(C(=O)c2cc(C(F)(F)F)cc(C(F)(F)F)c2)[C@H](Cc2c[nH]c3ccccc23)C1)=N/OCc1ccccn1`: on Substance-P receptor [1], the inhibitory constant (Ki) was 10 nM. For the same compound, at Substance-P receptor [2], the Kb was 1.26 nM. In the assay on Gerbil, jird, this compound returned an ED50 of 4.1 mg/kg.

On to `C/C(CN1CCN(C(=O)c2cc(C(F)(F)F)cc(C(F)(F)F)c2)[C@H](Cc2c[nH]c3ccccc23)C1)=N/OCCN(C)C`, for which the inhibition constant (Ki) at Substance-P receptor [1] was 0.794 nM. Besides, the Kb on Substance-P receptor [2] was 7.94 nM. In the assay with Gerbil, jird, this compound came in with an ED50 of over 10 mg/kg.

As to `C/C(CCN1CCN(C(=O)c2cc(C(F)(F)F)cc(C(F)(F)F)c2)[C@H](Cc2c[nH]c3ccccc23)C1)=N/OCCCN1CCOCC1`, on Substance-P receptor [1], the affinity, expressed as Ki, was 0.2 nM. Moreover, the Kb at Substance-P receptor [2] was 1 nM. This compound registered an ED50 in the assay on Gerbil, jird of 5.5 mg/kg.

Turning to `C/C(CN1CCN(C(=O)c2cc(C(F)(F)F)cc(C(F)(F)F)c2)[C@H](Cc2c[nH]c3ccccc23)C1)=N/OCCN1CCOCC1`, at Substance-P receptor [1], affinity was put at a Ki of 10 nM. Moreover, the Kb at Substance-P receptor [2] is 0.158 nM. This compound displayed an ED50 in the assay with Gerbil, jird of 1.3 mg/kg.

In turn, `C/C(CN1CCN(C(=O)c2cc(C(F)(F)F)cc(C(F)(F)F)c2)[C@H](Cc2c[nH]c3ccccc23)C1)=N/OCCCN1CCOCC1` showed an inhibition constant Ki on Substance-P receptor [1] of 12.6 nM. Moreover, the Kb on Substance-P receptor [2] is 0.158 nM. The 50% effect level with Gerbil, jird (ED50) was put at a dose of 7.4 mg/kg.

Compound `O=C(c1cc(C(F)(F)F)cc(C(F)(F)F)c1)N1CCN(C/C(=N\OCCN2CCOCC2)c2ccccc2)C[C@H]1Cc1c[nH]c2ccccc12` had an inhibition constant Ki at Substance-P receptor [1] of 20 nM. Also, the Kb on Substance-P receptor [2] was 3.16 nM.

For `C/C(CN1CCN(C(=O)c2cc(C(F)(F)F)cc(C(F)(F)F)c2)[C@H](Cc2c[nH]c3ccccc23)C1)=N/OCCN1CCS(=O)(=O)CC1`, the Ki at Substance-P receptor [1] was 2.51 nM. Further, the Kb on Substance-P receptor [2] was 0.1 nM. In the assay on Gerbil, jird, the ED50 is over 10 mg/kg.

On to `C/C(CN1CCN(C(=O)c2cc(C(F)(F)F)cc(C(F)(F)F)c2)[C@H](Cc2c[nH]c3ccccc23)C1)=N/OCC(C)(C)N1CCOCC1`, for which the Ki at Substance-P receptor [1] was 6.31 nM. Besides, the Kb at Substance-P receptor [2] is 5.01 nM.

`C/C(CN1CCN(C(=O)c2cc(C(F)(F)F)cc(C(F)(F)F)c2)[C@H](Cc2c[nH]c3ccccc23)C1)=N/OCCN1CCSCC1` showed a Ki on Substance-P receptor [1] of 6.31 nM. Besides, the Kb on Substance-P receptor [2] was 1.26 nM. It took a dose of 10 mg/kg to reach the 50% effect level in the assay with Gerbil, jird (ED50).

On to `C/C(CCCN1CCN(C(=O)c2cc(C(F)(F)F)cc(C(F)(F)F)c2)[C@H](Cc2c[nH]c3ccccc23)C1)=N/OCCN1CCOCC1`, for which the Ki at Substance-P receptor [1] was 1.26 nM. On Substance-P receptor [2], the Kb is 1.58 nM. For the same compound, in the assay with Gerbil, jird, the 50% effect level (ED50) was put at a dose of 2 mg/kg.

At Substance-P receptor [1], `O=C(c1cc(C(F)(F)F)cc(C(F)(F)F)c1)N1CCN(C/C=N\OCCN2CCOCC2)C[C@H]1Cc1c[nH]c2ccccc12` showed an inhibition constant Ki of 1.26 nM. The Kb on Substance-P receptor [2] is 0.631 nM. Moreover, the ED50 with Gerbil, jird was 2 mg/kg.

On to `C/C(CN1CCN(C(=O)c2cc(C(F)(F)F)cc(C(F)(F)F)c2)[C@H](Cc2c[nH]c3ccccc23)C1)=N/OCC(C)N1CCOCC1` (stereo not given in full), for which the Ki on Substance-P receptor [1] was 3.16 nM. In addition, the Kb at Substance-P receptor [2] is 2 nM. For the same compound, the 50% effect level with Gerbil, jird (ED50) was put at a dose of 2.6 mg/kg.

For the compound `O=C(c1cc(C(F)(F)F)cc(C(F)(F)F)c1)N1CCN(Cc2cc(CN3CCOCC3)on2)C[C@H]1Cc1c[nH]c2ccccc12`, the affinity on Substance-P receptor [1], expressed as Ki, was 12.6 nM. Further, the Kb on Substance-P receptor [2] was 0.794 nM. This compound also displayed a median effective dose (ED50) in the assay with Gerbil, jird of 4.6 mg/kg.

By Ki is commonly meant the equilibrium dissociation constant of an inhibitor or competing ligand from its target. A high value points to lower affinity. For orientation: ED50 means the midpoint of the dose-response relation. Higher therefore signals a need for a large dose.

The values are drawn from ChEMBL document CHEMBL1138138, “Piperazinyl oxime ethers as NK-1 receptor antagonists” (Bioorg Med Chem Lett, 2006).
